Assay results: ChEMBL document CHEMBL4219153, “Identification of second-generation P2X3 antagonists for treatment of pain” (Bioorg Med Chem Lett, 2018)

How the values were obtained:
[1] = Protein binding in rat plasma; assay type: ADME, cell-free; details: read-out: PPB (converted)
[2] = Intrinsic clearance in rat; assay type: ADME, organism-based; details: in vivo
[3] = target: T1, P2X purinoceptor 3 (Homo sapiens) (UniProt P56373); experiment: Antagonist activity at recombinant human P2X3 receptor expressed in Flp-In-293 cells assessed as inhibition of alphabeta-meATP-induced calcium flux preincubated for 10 mins followed by alphabeta-meATP addition measured at 5 sec intervals by Fluo-4 dye based FLIPR assay; assay type: cell-based
T1 sequence (whole entry): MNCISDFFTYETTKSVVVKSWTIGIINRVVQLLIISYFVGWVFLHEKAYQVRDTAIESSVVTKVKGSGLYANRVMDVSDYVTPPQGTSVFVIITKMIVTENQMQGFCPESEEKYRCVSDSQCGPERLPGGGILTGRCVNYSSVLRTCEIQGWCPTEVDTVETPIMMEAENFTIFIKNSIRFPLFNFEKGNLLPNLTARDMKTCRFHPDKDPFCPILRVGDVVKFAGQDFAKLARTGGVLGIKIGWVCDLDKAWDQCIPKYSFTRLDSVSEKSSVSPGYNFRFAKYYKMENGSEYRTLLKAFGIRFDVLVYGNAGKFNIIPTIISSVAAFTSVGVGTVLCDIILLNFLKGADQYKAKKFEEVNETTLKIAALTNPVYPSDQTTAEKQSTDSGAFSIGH

[4] = Half life in rat; assay type: ADME, organism-based; details: in vivo
[5] = target: Cytochrome P450 2C9 (Homo sapiens, UniProt P11712); experiment: Inhibition of CYP2C9 (unknown origin); assay type: ADME
Chain of Cytochrome P450 2C9 (P11712 whole entry): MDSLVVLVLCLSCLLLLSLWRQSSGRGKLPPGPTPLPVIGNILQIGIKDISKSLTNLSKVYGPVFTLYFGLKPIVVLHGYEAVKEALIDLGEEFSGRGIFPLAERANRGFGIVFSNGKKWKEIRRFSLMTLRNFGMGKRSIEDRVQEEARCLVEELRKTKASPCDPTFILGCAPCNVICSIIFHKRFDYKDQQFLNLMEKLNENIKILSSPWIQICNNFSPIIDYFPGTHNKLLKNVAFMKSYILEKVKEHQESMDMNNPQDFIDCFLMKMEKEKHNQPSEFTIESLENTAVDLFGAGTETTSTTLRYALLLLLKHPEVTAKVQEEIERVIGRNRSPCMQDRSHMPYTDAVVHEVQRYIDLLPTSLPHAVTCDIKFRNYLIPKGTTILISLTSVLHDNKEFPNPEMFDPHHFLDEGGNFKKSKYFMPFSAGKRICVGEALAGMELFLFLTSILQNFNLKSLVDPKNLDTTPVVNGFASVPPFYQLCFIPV

[6] = target: T2, P2X purinoceptor 3 (Homo sapiens, UniProt P56373); experiment: Antagonist activity at recombinant human P2X3 receptor expressed in Flp-In-293 cells assessed as inhibition of CTP-induced […] current response preincubated for 2 mins followed by CTP addition along with test compound by whole cell patch-clamp method; assay type: cell-based
T2 sequence (P56373 whole entry): T1 sequence (whole entry)

[7] = Oral bioavailability in dog; assay type: ADME, organism-based, Canis lupus familiaris; details: in vivo
[8] = target: T3, PXR (Homo sapiens, UniProt O75469); experiment: Activation of PXR (unknown origin) at 10 uM relative to control; assay type: ADME; details: read-out: Activity
T3 sequence (O75469 whole entry): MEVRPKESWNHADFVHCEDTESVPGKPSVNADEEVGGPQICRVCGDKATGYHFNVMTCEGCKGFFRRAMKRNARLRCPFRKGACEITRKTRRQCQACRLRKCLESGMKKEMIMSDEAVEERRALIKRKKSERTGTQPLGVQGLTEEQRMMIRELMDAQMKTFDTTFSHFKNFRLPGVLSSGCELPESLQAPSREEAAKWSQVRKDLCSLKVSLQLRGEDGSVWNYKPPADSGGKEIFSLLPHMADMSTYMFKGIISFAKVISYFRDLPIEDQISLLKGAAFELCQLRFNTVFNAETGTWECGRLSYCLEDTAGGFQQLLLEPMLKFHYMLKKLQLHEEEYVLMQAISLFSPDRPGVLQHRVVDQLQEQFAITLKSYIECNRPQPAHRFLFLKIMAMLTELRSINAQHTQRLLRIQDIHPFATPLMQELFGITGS

[9] = Oral bioavailability in rat; assay type: ADME, organism-based; details: in vivo
[10] = Oral bioavailability in rhesus monkey; assay type: ADME, organism-based, Macaca mulatta; details: in vivo
[11] = target: T4, UDP-glucuronosyltransferase 1A1 (Homo sapiens, UniProt P22309); experiment: Inhibition of human UGT1A1 expressed in baculovirus infected insect cells using bilirubin as substrate measured after 10 mins by HPLC analysis; assay type: ADME
T4 sequence (P22309 whole entry): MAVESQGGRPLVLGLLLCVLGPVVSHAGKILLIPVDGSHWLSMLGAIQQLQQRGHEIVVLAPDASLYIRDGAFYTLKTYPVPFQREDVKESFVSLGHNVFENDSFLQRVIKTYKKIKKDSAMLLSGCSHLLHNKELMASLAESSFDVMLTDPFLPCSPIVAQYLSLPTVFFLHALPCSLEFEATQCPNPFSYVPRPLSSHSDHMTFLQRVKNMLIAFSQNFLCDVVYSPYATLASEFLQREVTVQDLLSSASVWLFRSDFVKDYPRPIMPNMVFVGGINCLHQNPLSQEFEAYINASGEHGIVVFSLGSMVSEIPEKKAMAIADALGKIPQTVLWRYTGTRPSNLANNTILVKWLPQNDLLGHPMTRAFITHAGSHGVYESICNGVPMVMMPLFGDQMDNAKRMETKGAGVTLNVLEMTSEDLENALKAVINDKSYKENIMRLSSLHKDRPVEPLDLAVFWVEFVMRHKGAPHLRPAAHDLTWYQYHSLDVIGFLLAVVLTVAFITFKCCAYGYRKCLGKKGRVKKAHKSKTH

[12] = system: Rattus norvegicus; experiment: Antinociceptive activity in complete freund's adjuvant induced mechanical hypersensitivity Sprague-Dawley rat model assessed as reversal of mechanical hyperalgesia by measuring hind paw withdrawal thresholds at 60 mg/kg, po; assay type: functional
[13] = target: T5, Nuclear receptor subfamily 1 group I member 2 (Homo sapiens, UniProt O75469); experiment: Activation of PXR (unknown origin); assay type: ADME
T5 sequence (O75469 whole entry): T3 sequence (O75469 whole entry)

[14] = target: T4, UDP-glucuronosyltransferase 1A1; experiment: Inhibition of UGT1A1 in human liver microsomes assessed as decrease in estradiol-3 glucuronidation; assay type: ADME
[15] = Protein binding in dog plasma; assay type: ADME, cell-free, Canis lupus familiaris; details: read-out: PPB (converted)
[16] = Intrinsic clearance in dog; assay type: ADME, organism-based, Canis lupus familiaris; details: in vivo
[17] = Half life in dog; assay type: ADME, organism-based, Canis lupus familiaris; details: in vivo

fraction unbound [1] | CLint scaled [2] | IC50 [3] | SMILES | other results
0.026 | 214 mL/min/kg | 21 nM | C[C@@H](NC(=O)c1cc(-c2ccc(Cl)cc2)cc(C(C)(C)O)c1)c1ccc(C(F)(F)F)[n+]([O-])c1 | half-life [4]: 2.4 h
 |  | 284 nM | Cc1ccc(-c2cc(C(=O)N[C@H](C)c3nnc[nH]3)cc(-c3ncccc3F)c2)nc1 | 
0.016 | 133 mL/min/kg | 21 nM | Cc1ccc(-c2cc(C(=O)N[C@H](C)c3ccc(F)cn3)cc(C3=NO[C@H](c4ccccn4)C3)c2)nc1 | IC50 [5]: 5700 nM; IC50 [6]: 24 nM; bioavailability [7]: 68%; activity at 10 µM [8]: 47%; bioavailability [9]: 60%; bioavailability [10]: 47%; IC50 [11]: 1000 nM; half-life [4]: 1 h; EC90 [12]: 3000 nM
0.096 |  | 2 nM | Cc1ccc(-c2cc(C(=O)N[C@H](C)c3ccc(F)c[n+]3[O-])cc(-c3ncccc3F)c2)nc1 | 
0.048 |  | 14 nM | Cc1ccc(-c2cc(C(=O)N[C@H](C)c3ccc(C(F)(F)F)nc3)cc(C(C)(C)O)c2)nc1 | IC50 [5]: 19000 nM; EC50 [13]: 18000 nM
 |  | 17 nM | Cc1ccc(-c2cc(C(=O)N[C@@H](C)c3nc(C)no3)cc(-c3ncccc3F)c2)nc1 | 
 |  | 45 nM | Cc1ccc(-c2cc(C(=O)NCCc3nc(C)no3)cc(-c3ncccc3F)c2)nc1 | 
0.014 |  | 8 nM | Cc1ccc(-c2cc(C(=O)N[C@H](C)c3ccc(C(F)(F)F)nc3)cc(-c3ncccc3F)c2)nc1 | 
0.149 | 533 mL/min/kg | 47 nM | Cc1ccc(-c2cc(C(=O)N[C@H](C)c3ccc(F)cn3)cc(N3CCOCC3)c2)nc1 | EC50 [13]: > 30000 nM
0.008 | 24800 mL/min/kg | 8 nM | Cc1ccc(-c2cc(C(=O)N[C@H](C)c3ccc(F)cn3)cc(-c3ncccc3F)c2)nc1 | EC50 [13]: 6000 nM
 |  | 30 nM | Cc1ccc(-c2cc(C(=O)N[C@@H](c3nc(C)no3)C3CC3)cc(-c3ncccc3F)c2)nc1 | 
0.012 |  | 10 nM | Cc1ccc(-c2cc(C(=O)N[C@@H](C)c3nnc[nH]3)cc(-c3ncccc3F)c2)nc1 | 
0.046 | 6790 mL/min/kg | 20 nM | Cc1ccc(-c2cc(C(=O)N[C@H](C)c3ccc(C(F)(F)F)[n+]([O-])c3)cc(C(C)(C)O)c2)cc1 | half-life [4]: 0.2 h
 |  | 155 nM | Cc1ccc(-c2cc(C(=O)NCc3nc(C(C)C)no3)cc(-c3ncccc3F)c2)nc1 | 
0.004 |  | 3 nM | Cc1ccc(-c2cc(C(=O)N[C@H](C)c3nc(C)no3)cc(-c3ncccc3F)c2)nc1 | 
 |  | 170 nM | Cc1ccc(-c2cc(C(=O)NC3(c4nc(C)no4)CC3)cc(-c3ncccc3F)c2)nc1 | 
0.048 |  | 5 nM | Cc1ccc(-c2cc(C(=O)N[C@H](C)c3ccc(C(F)(F)F)[n+]([O-])c3)cc(-c3ncccc3F)c2)nc1 | 
0.18 |  | 67 nM | Cc1ccc(-c2cc(C(=O)N[C@H](C)c3ccc(F)cn3)cc(C(C)(C)O)c2)nc1 | EC50 [13]: 2000 nM
0.376 |  | 5 nM | Cc1ccc(-c2cc(C(=O)N[C@H](C)c3ccc(C(F)(F)F)[n+]([O-])c3)cc(C(C)(C)O)c2)nc1 | IC50 [5]: > 50000 nM; EC50 [13]: > 30000 nM
0.238 | 69 mL/min/kg | 14 nM | C[C@@H](NC(=O)c1cc(-c2ccc(Cl)cn2)cc(C(C)(C)O)c1)c1ccc(C(F)(F)F)[n+]([O-])c1 | IC50 [14]: > 20000 nM; IC50 [5]: 82000 nM; IC50 [6]: 18 nM; bioavailability [7]: 63%; fraction unbound [15]: 0.263; CLint scaled [16]: 7.7 mL/min/kg; EC50 [13]: > 30000 nM; bioavailability [9]: 13%; half-life [17]: 3.9 h; half-life [4]: 1.3 h; EC90 [12]: 160 nM
0.447 | 477 mL/min/kg | 82 nM | C[C@@H](NC(=O)c1cc(-c2ccc(F)cn2)cc(C(C)(C)O)c1)c1ccc(C(F)(F)F)[n+]([O-])c1 | half-life [4]: 0.48 h
0.026 | 3910 mL/min/kg | 37 nM | Cc1ccc(-c2cc(C(=O)N[C@H](C)c3ccc(F)cn3)cc(-n3nccn3)c2)nc1 | 
